The values that follow come from patent EP0409410B1, “Indenoindole compounds” (UNIVERSITY OF BATH, priority 1989, dated 1991).

The first assay deals with rat hepatocytes. The experiment in a line: Protection against cytotoxic effects of MNNG in hepatocytes (trypan blue exclusion). Type of assay: cell-based, male Sprague-Dawley rats. The settings on record: Hepatocyte, concentration of compound required to extend by 1 hour the time needed for MNNG (0.5 mM) to kill 50 % of the viable cells, read-out: IC₅₀. An excerpt:
(§1) The most remarkable feature of the compounds of the invention is their efficacy as free-radical scavengers or antioxidants. An assay system measuring the concentration of the compounds of formulas (IA) and (IB) required to inhibit lipid peroxidation by 50% (IC₅₀) was used. Other assays described below are the red blood cell fragility test used for measuring membrane stabilisation by indenoindoles (Table 2), and protection by indenoindoles against cytotoxicity of N-methyl-N¹-nitro-N-nitrosoguanidine (MNNG) in rat hepatocytes (Table 3). MNNG is a highly cytotoxic agent, the mechanism of action of which may involve a radical-mediated membrane destabilization.
The protective effects of indenoindoles on MNNG-induced cytotoxicity was assayed with rat hepatocytes. Hepatocytes were prepared from male Sprague-Dawley rats by collagenase treatment as originally described by Zahlten and Stratman (Zahlten, R.N. and Stratman, F.W., Arch. Biochem. Biophys. 163, 600 (1988)), as modified by Reitman et al (Reitman, F.A., Shertzer, H.G. and Berger, M.L., Biochem. Pharmacol. 37,3183 (1988)). In order to improve viability, cells were centrifuged through 0.508 g/ml Percoll (Pharmacia AB, Uppsala, Sweden) in 137 mM NaCl, 8.1 mM Na₂HPO₄ and 1.5 mM KH₂PO₄ (pH 7.4). Putative protecting agents were added to the cells as solutions in DMSO, with the final concentration of DMSO never exceeding 5 µl/ml of cell suspension. MNNG was added to a concentration of 0.5 mM as a solution in ethanol, giving a final concentration of ethanol of 1%; ethanol alone was by itself without effect. Viability was determined as the percentage of cells that excluded 0.2 % trypan blue. Values are the concentration of compound required to extend by 1 hour the time needed for MNNG to kill 50 % of the viable cells.
As to `CC(=O)Oc1c(C)c(C)c2c(c1C)CCC(C)(CCCC(C)CCCC(C)CCCC(C)C)O2` (stereo not drawn) [α-Tocopheryl-acetate, reference compound], the IC50 was 161 µM.

Take `c1ccc2c(c1)C[C@H]1Nc3ccccc3[C@@H]21` (relative stereo) [iso-THII, cis-5,5a,6,10b-Tetrahydroindeno[2,1-b]indole]: the IC50 was found to be 2 µM.

The next assay concerns ascorbate/Fe²⁺-dependent lipid peroxidation. The experiment in a line: Ascorbate/Fe²⁺-dependent lipid peroxidation (2-thiobarbituric acid-reactive material). Type of assay: biochemical. The settings on record: concentration required to inhibit lipid peroxidation by 50%; 200 µg/ml soy bean phospholipid, 10 µM iron, 100 µM ascorbic acid, 0.1 M KPi pH 7.4, room temperature, 30 min.
Description: as §1
For the ferrous/ascorbate lipid peroxidation system, 6.25 ml of 0.1 M potassium phosphate buffer (KPi), pH 7.4, was added to 12.5 mg dried soy bean phospholipids. After flushing with argon for 2 min, the suspension was sealed with five layers of Parafilm and sonicated until the suspension was translucent. The final reaction mixture was composed of 200 µg/ml phospholipid, 10 µM FeNH₄ (SO₄)₂ or Fe(NH₄)₂(SO₄)₂, and 100 µM ascorbic acid in 0.1 M KPi (pH 7.4), and the antioxidant to be tested in acetone or DMSO. The volume of vehicle never exceeded 1% of the total volume. The reaction was initiated by the addition of ascorbic acid plus iron. The reaction was continued at room temperature in a shaking water bath for 30 min and then stopped by the addition of […] of 0.5 M butylated hydroxytoluene in DMSO. The above procedure and the subsequent determination of 2-thiobarbituric acid-reactive material is described in: Shertzer, H.G. et al, Biochem. Pharmacol. 37, 333 (1988). […]
As for `CC(C)c1ccc2c(c1)[C@@]1(C)Cc3ccccc3[C@@]1(C)N2` (relative stereo) [8-Isopropyl-4b,9b-dimethyl, cis-4b,5,9b,10-Tetrahydro-4b,9b-dimethyl-8-isopropylindeno[1,2-b]indole], the pIC₅₀ turned out to be 7.7.

On to `Cc1ccc2c(c1)[C@@]1(C)Cc3ccccc3[C@@]1(C)N2` (relative stereo) [4b,8,9b-Trimethyl-THII, cis 4b,5,9b,10-Tetrahydro-4b,8,9b-trimethylindeno[1,2-b]indole], for which the pIC₅₀ turned out to be 7.6.

Regarding `Cc1cc(C)c2c(c1)[C@H]1Cc3ccccc3[C@H]1N2` (relative stereo) [6,8-Dimethyl-THII, cis-4b,5,9b,10-Tetrahydro-6,8-dimethylindeno[1,2-b]indole], the pIC₅₀ is listed as 7.3.

`CC12Cc3ccccc3C1(C)Nc1ccccc12` (stereo not drawn) [4b,9b-Dimethyl-THII, cis-4b,5,9b,10-Tetrahydro-4b,9b-dimethylindenol[1.2-b]indole] gave a pIC₅₀ of 7.2.

For `CC12Nc3ccccc3C1Cc1ccccc12` (stereo not drawn) [4b-Methyl-THII, cis-4b,5,9b,10-Tetrahydro-4b-methylindeno[1,2-b]inole], the pIC₅₀ amounted to 7.1.

`Cc1cc(C)c2c(c1)[C@@]1(C)Cc3ccccc3[C@@]1(C)N2` (relative stereo) [4b,6,8,9b-Tetramethyl-THII, cis-4b,5,9b,10-Tetrahydro-4b,6,8,9b-tetramethylindeno[1,2-b]indole] yielded a pIC₅₀ of 7.4.

Compound `CC(C)c1ccc2c(c1)[C@H]1Cc3ccccc3[C@H]1N2` (relative stereo) [8-Isopropyl-THII, cis-4b,5,9b,10-Tetrahydro-8-iso-propylindeno[1,2-b]indole] showed a pIC₅₀ of 7.3.

In turn, `c1ccc2c(c1)C[C@H]1Nc3ccccc3[C@@H]21` (relative stereo) [iso-THII, cis-5,5a,6,10b-Tetrahydroindeno[2,1-b]indole] gave a pIC₅₀ of 6.9.

`CCN(CC)c1ccc2c(c1)C1Cc3ccccc3C1N2CC` (stereo not drawn) [8-Diethylamino-5-ethyl-THII, cis-4b,5,9b,10-Tetrahydro-5-ethyl-8-(N.N-diethylamino)-indeno[1,2-b]indole] displayed a pIC₅₀ of 7.1.

As to `COc1ccc2c(c1)[C@@H]1c3ccccc3C[C@@H]1N2` (relative stereo) [9-Methoxy-iso-THII, cis-5,5a,6,10b-Tetrahydro-9-methoxyindeno[2,1-b]indole], the pIC₅₀ was determined as 7.7.

Take `CC(C)c1ccc2c(c1)[C@H]1Cc3ccccc3[C@@]1(C)N2` (relative stereo) [8-Isopropyl-4b-methyl-THII, cis-4b,5,9b,10-Tetrahydro-4b-methyl-8-isopropylindeno-[1,2-b]indole]: the pIC₅₀ is reported as 7.7.

`Cc1c(C)c2c(c(C)c1O)CCC(C)(CCCC(C)CCCC(C)CCCC(C)C)O2` (stereo not drawn) [α-Tocopherol (Vitamin E), α-Tocopherol, reference compound]: the pIC₅₀ turned out to be 5.0.

In turn, `CN1c2ccccc2[C@H]2c3ccccc3C[C@H]21` [6-Methyl-iso-THII, cis-5,5a,6,10b-Tetrahydro-methylindeno[2.1-b]indole] displayed a pIC₅₀ of 6.1.

For the compound `Cc1ccc2c(c1)[C@H]1Cc3ccccc3[C@H]1N2` (relative stereo) [8-Methyl-THII, cis-4b,5,9b,10-Tetrahydro-8 methylindeno[1,2-b]indole], the pIC₅₀ turned out to be 7.1.

`CC(C)c1ccc2c(c1)[C@@H]1c3ccccc3C[C@@H]1N2` (relative stereo) [9-Isopropyl-iso-THII, cis-5,5a,6,10b-Tetrahydro-9-isopropylindeno[2,1-b]indole] returned a pIC₅₀ of 7.4.

As for `CC1(C)c2ccccc2[C@H]2Nc3ccccc3[C@H]21` (relative stereo) [10,10-Dimethyl-THII, cis-4b,5,9b,10-Tetrahydro-10,10-dimethylindeno [1,2-b] indole], the pIC₅₀ was determined as 6.9.

`Cc1cc2c(c(C)c1O)C[C@@H]1c3ccccc3N[C@H]21` (relative stereo) [2-Hydroxy-1,3-dimethyl-THII, cis-4b,5,9b,10-Tetrahydro-2-hydroxy-1,3-dimethylindeno[1,2-b]indole]: the pIC₅₀ turned out to be 7.9.

The compound `Cc1ccc2c(c1)[C@@]1(C)Cc3ccccc3[C@@]1(C)N2C` (relative stereo) [4b,5,8,9b-Tetramethyl-THII, cis-4b,5,9b,10-tetrahydro-4b,5,8,9b-tetramethylindeno[1,2-b]indole] gave a pIC₅₀ of 6.8.

`COc1c(C)cc2c(c1C)C[C@@H]1c3ccccc3N[C@H]21` (relative stereo) [2-Methoxy-1,3-dimethyl-THII, cis-4b,5,9b,10-Tetrahydro-2-methoxy-1,3-dimethylindeno[1,2-b]indole] yielded a pIC₅₀ of 7.2.

For `Cc1ccc2c(c1)C1Cc3ccccc3C1N2C` (stereo not drawn) [5,8-Dimethyl-THII, cis-4b,5,9b,10-Tetrahydro-5,8-dimethylindenol[1,2-b]indole], the pIC₅₀ came to 6.4.

For the compound `COc1cc(C)c2c(c1)[C@H]1Cc3ccccc3[C@H]1N2` (relative stereo) [8-Methoxy-6-methyl-THII, cis-4b,5,9b,10-Tetrahydro-8-methoxy 6-methylindeno[1,2-b]indole], the pIC₅₀ is 8.0.

As for `COc1ccc2c(c1)[C@H]1Cc3c(cc(C)c(OC)c3C)[C@H]1N2` (relative stereo) [2,8-Dimethoxy-1,3,dimethyl-THII, cis-4b,5,9b,10-Tetrahydro-2,8-dimethoxy-1,3-dimethylindeno[1,2-b]indole], the pIC₅₀ is listed as 8.1.

The compound `CCN(CC)c1ccc2c(c1)C[C@@H]1c3ccccc3N[C@H]21` (relative stereo) [2-Diethylamino-THII, cis-4b,5,9b,10-Tetrahydro-2-(N,N-Diethylamino)-indeno[1,2-b]indole] displayed a pIC₅₀ of 7.2.

`CC12Cc3ccccc3C1Nc1ccccc12` (stereo not drawn) [9b-Methyl-THII, cis-4b,5,9b,10-Tetrahydro-9b-methylindeno [1.2-b]-indole] returned a pIC₅₀ of 7.0.

In turn, `Fc1ccc2c(c1)[C@H]1Cc3ccccc3[C@H]1N2` (relative stereo) [8-Fluoro-THII, cis-4b,5,9b,10-Tetrahydro-8-fluoroindeno[1,2-b]indole] yielded a pIC₅₀ of 7.5.

Regarding `COc1ccc2c(c1)C1Cc3ccccc3C1N2C` (stereo not drawn) [8-Methoxy-5-methyl-THII, cis-4b.5.9b,10-Tetrahydro-8-methoxy-5-methylindeno[1,2-b]indole], the pIC₅₀ stood at 7.0.

In a further assay the test system is red blood cells. The experiment in a line: Red blood cell fragility test (membrane stabilization, protection from osmolysis). The settings on record: red blood cell fragility protective index value: linear regression slope, percentage protection against osmolysis per µM protecting agent; rat blood, absorbance at 656 nm. It counts as cell-based, Rats.
Description: as §1
The membrane stabilization effect of indenoindoles was assayed by the red blood cell fragility test. Rats were anesthesized With 65 mg pentobarbital per kg body weight by i.p. injection. Blood samples were removed into a heparinized syringe from the left ventricle and diluted 20-fold with buffer containing 140 mM NaCl, 10 mM sodium citrate and 5 mM glucose (pH 7.4) at 0°C. Diluted blood was kept on ice. A 0.75 ml aliquot of blood was added to a 4 ml cuvette containing 10 µl DMSO or 10 µl of the antioxidant dissolved in DMSO vehicle. After 1 min of gentle swirling, 0.75 ml of 0.9 % NaCl or H₂O were added to the cuvette by forceful pipetting, and the absorbance at 656 nm was recorded with a Beckman DU-70 spectrophotometer. When H₂O was added in the absence of a stabilizing agent, absorbance decreased wtihin 15 sec to 0.8. Addition of NaCl instead of H₂O gave a time-independent absorbance of 2.2. In the presence of increasing concentrations of stabilizing chemicals, the absorbance decrease observed after the addition of water was diminished. The % protection from osmolysis was obtained from the equation [E(2.2- 0.8) - A/2.2-0.8)] x 100% [formula] , where A=2.2 minus the absor bance decrease when water is added in the presence of a known concentration of chemical. The % protection is then plotted against several concentrations of the chemical being treated. The red blood cell fragility protective index value (RBC-PIV) is the linear regression slope of this plot, expressed as the percentage protection against osmolysis per µM protecting agent. […]
Turning to `COc1ccc2c(c1)[C@H]1Cc3ccccc3[C@H]1N2` (relative stereo) [8-Methoxy-THII, cis-4b,5,9b,10-Tetrahydro-8-methoxyindeno[1,2-b]indole], the RBC-PIV is given as 0.21 %/µM.

Take `c1ccc2c(c1)C[C@H]1Nc3ccccc3[C@@H]21` (relative stereo) [iso-THII, cis-5,5a,6,10b-Tetrahydroindeno[2,1-b]indole]: the RBC-PIV amounted to 0.38 %/µM.

In turn, `Cc1c(C)c2c(c(C)c1O)CCC(C)(CCCC(C)CCCC(C)CCCC(C)C)O2` (stereo not drawn) [α-Tocopherol (Vitamin E), α-Tocopherol, reference compound] showed an RBC-PIV of 0.10 %/µM.
